Assay results as given in US20130310256A1, “HERBICIDAL COMPOSITIONS COMPRISING 4-AMINO-3-CHLORO-5-FLUORO-6-(4-CHLORO-2-FLUORO-3-METHOXYPHENYL) PYRIDINE-2-CARBOXYLIC ACID OR A DERIVATIVE THEREOF AND VLCFA AND LIPID SYNTHESIS INHIBITING HERBICIDES” (DOW AGROSCIENCES LLC, priority 2008, published 2013).
“And” between values parts separate entries of the source, which are not always exact repeats. Equal entries are not always repeated.

Legend:
Assay in all cases: Example I: postemergence foliar-applied weed control, greenhouse
LEFCH = format: in vivo, Leptochloa chinensis (L.) Nees (Chinese sprangletop); conditions: for Visual Weed Control (%) - 21 DAA LEFCH Obs / Visual Weed Control (%) - 22 DAA LEFCH Obs / Visual Weed Control (%) - 19 DAA LEFCH Obs: foliar
Procedure, shortened: (§1)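 Plants grown in loam/sandy loam–calcareous grit soil (80:20) in greenhouse, 14 hr photoperiod, about 29° C. day/26° C. night, treated postemergence at first to fourth true leaf stage. Foliar spray at 187 L/ha with 1.25% (v/v) crop oil concentrate; Compound A dosed on acid equivalent basis, partners on active ingredient basis.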

ECHCO = format: in vivo, Echinochloa colona (L.) Link (junglerice); conditions: for Visual Weed Control Obs: 20 DAA
Procedure, shortened: as §1

CYPIR = format: in vivo, Cyperus iria L. (rice flatsedge)
Procedure, shortened: as §1

## CCS(=O)(=O)Oc1ccc2c(c1)C(C)(C)CO2 [Benfuresate, 2,3-dihydro-3,3-dimethyl-5-benzofuranyl ethanesulfonate]
LEFCH; 75 gai/ha
  Visual Weed Control (%) - 21 DAA LEFCH Obs: 0%
LEFCH; 150 gai/ha
  Visual Weed Control (%) - 21 DAA LEFCH Obs: 10%
LEFCH; 300 gai/ha
  Visual Weed Control (%) - 21 DAA LEFCH Obs: 10%
  Visual Weed Control (%) - 22 DAA LEFCH Obs: 10%
ECHCO; 75 gai/ha, foliar
  Visual Weed Control (%) - 22 DAA ECHCO Obs: 0%
ECHCO; 150 gai/ha, foliar
  Visual Weed Control (%) - 22 DAA ECHCO Obs: 0%
ECHCO; 300 gai/ha, foliar
  Visual Weed Control (%) - 22 DAA ECHCO Obs: 0%
CYPIR; 150 gai/ha, foliar
  Visual Weed Control (%) - 22 DAA CYPIR Obs: 0%
CYPIR; 300 gai/ha, foliar
  Visual Weed Control (%) - 22 DAA CYPIR Obs: 10%

## CCN(CC)C(=O)n1cnc(S(=O)(=O)c2c(C)cc(C)cc2C)n1 [Cafenstrole, N,N-diethyl-3-[(2,4,6-trimethylphenyl)sulfonyl]-1H-1,2,4-triazole-1-carboxamide]
LEFCH; 20 DAA, 26.25 gai/ha Himeadow WP
  Visual Weed Control Obs: 0%
LEFCH; 20 DAA, 52.5 gai/ha Himeadow WP
  Visual Weed Control Obs: 0%
LEFCH; 20 DAA, 105 gai/ha Himeadow WP
  Visual Weed Control Obs: 0%
LEFCH; 21 DAA, 210 gai/ha Lapost Flowable
  Visual Weed Control Obs: 23%
ECHCO; 26.25 gai/ha Himeadow WP
  Visual Weed Control Obs: 10%
ECHCO; 52.5 gai/ha Himeadow WP
  Visual Weed Control Obs: 10%
ECHCO; 105 gai/ha Himeadow WP
  Visual Weed Control Obs: 10%
CYPIR; 21 DAA, 26.25 gai/ha Lapost Flowable
  Visual Weed Control Obs: 0%
CYPIR; 21 DAA, 52.5 gai/ha Lapost Flowable
  Visual Weed Control Obs: 0%
CYPIR; 21 DAA, 105 gai/ha Lapost Flowable
  Visual Weed Control Obs: 0%

## COc1c(Cl)ccc(-c2nc(C(=O)O)c(Cl)c(N)c2F)c1F [Compound A Acid, 4-amino-3-chloro-6-(4-chloro-2-fluoro-3-methoxyphenyl)-5-fluoropyridine-2-carboxylic acid]
LEFCH; 10.6 gae/ha
  Visual Weed Control (%) - 22 DAA LEFCH Obs: 10%
LEFCH; 20 DAA, 17.5 gae/ha
  Visual Weed Control Obs: 30% and 50%
LEFCH; 21 DAA, 17.5 gae/ha
  Visual Weed Control Obs: 20%
LEFCH; 21 DAA, 35 gae/ha
  Visual Weed Control Obs: 45%
LEFCH; 21.2 gae/ha
  Visual Weed Control (%) - 22 DAA LEFCH Obs: 10%
ECHCO; 5.3 gae/ha, foliar
  Visual Weed Control (%) - 22 DAA ECHCO Obs: 65%
ECHCO; 10.6 gae/ha, foliar
  Visual Weed Control (%) - 22 DAA ECHCO Obs: 65%
ECHCO; 4.38 gae/ha
  Visual Weed Control Obs: 65% and 40% and 70%
ECHCO; 8.75 gae/ha
  Visual Weed Control Obs: 85% and 60%
CYPIR; 5.3 gae/ha, foliar
  Visual Weed Control (%) - 22 DAA CYPIR Obs: 60%
CYPIR; 20 DAA, 4.38 gae/ha
  Visual Weed Control Obs: 40%
CYPIR; 21 DAA, 4.38 gae/ha
  Visual Weed Control Obs: 70%

## COc1c(Cl)ccc(-c2nc(C(=O)OCc3ccccc3)c(Cl)c(N)c2F)c1F [Compound A Benzyl Ester, benzyl ester of 4-amino-3-chloro-5-fluoro-6-(4-chloro-2-fluoro-3-methoxy-phenyl)pyridine-2-carboxylic acid]
LEFCH; 5.3 gae/ha
  Visual Weed Control (%) - 21 DAA LEFCH Obs: 0%
LEFCH; 8 gae/ha
  Visual Weed Control (%) - 21 DAA LEFCH Obs: 20%
  Visual Weed Control (%) - 22 DAA LEFCH Obs: 35%
LEFCH; 10.6 gae/ha
  Visual Weed Control (%) - 21 DAA LEFCH Obs: 20%
LEFCH; 16 gae/ha
  Visual Weed Control (%) - 19 DAA LEFCH Obs: 45%
  Visual Weed Control (%) - 22 DAA LEFCH Obs: 40%
LEFCH; 20 DAA, 17.5 gae/ha
  Visual Weed Control Obs: 50% and 25%
LEFCH; 21.2 gae/ha
  Visual Weed Control (%) - 21 DAA LEFCH Obs: 35%
LEFCH; 32 gae/ha
  Visual Weed Control (%) - 19 DAA LEFCH Obs: 50%
ECHCO; 5.3 gae/ha, foliar
  Visual Weed Control (%) - 22 DAA ECHCO Obs: 30%
ECHCO; 8 gae/ha, foliar
  Visual Weed Control (%) - 19 DAA ECHCO Obs: 65%
  Visual Weed Control (%) - 20 DAA ECHCO Obs: 40%
ECHCO; 10.6 gae/ha, foliar
  Visual Weed Control (%) - 22 DAA ECHCO Obs: 55%
ECHCO; 16 gae/ha, foliar
  Visual Weed Control (%) - 20 DAA ECHCO Obs: 60%
ECHCO; 4.38 gae/ha
  Visual Weed Control Obs: 60%
ECHCO; 8.75 gae/ha
  Visual Weed Control Obs: 85% and 70%
ECHCO; 32 gae/ha, foliar
  Visual Weed Control (%) - 20 DAA ECHCO Obs: 90%
CYPIR; 8 gae/ha, foliar
  Visual Weed Control (%) - 21 DAA CYPIR Obs: 30%
CYPIR; 16 gae/ha, foliar
  Visual Weed Control (%) - 22 DAA CYPIR Obs: 60%
CYPIR; 20 DAA, 4.38 gae/ha
  Visual Weed Control Obs: 80%

## CCCOCCN(C(=O)CCl)c1c(CC)cccc1CC [Pretilachlor, 2-chloro-N-(2,6-diethylphenyl)-N-(2-propoxyethyl)acetamide]
ECHCO; 37.5 gai/ha
  Visual Weed Control Obs: 0%
ECHCO; 75 gai/ha
  Visual Weed Control Obs: 0%
ECHCO; 150 gai/ha
  Visual Weed Control Obs: 0%
CYPIR; 20 DAA, 37.5 gai/ha
  Visual Weed Control Obs: 0%
CYPIR; 20 DAA, 75 gai/ha
  Visual Weed Control Obs: 0%
CYPIR; 20 DAA, 150 gai/ha
  Visual Weed Control Obs: 0%
